From paper PMC6158189, “A pharmacological probe identifies cystathionine β-synthase as a new negative regulator for ferroptosis” (Cell Death & Disease, 2018)

Test system: HepG2 cells
Assay: cell viability (CellTiter 96 Aqueous One)
Type: cell-based, human
Conditions: 24 h
Experimental: Fig. 4 CH004 arrests the cell cycle at the S phase. a CH004 reduces the cell viability of HEK293T and HepG2 cells. HEK293T or HepG2 cells were treated with indicated concentrations of CH004 for 24 h before the cell number was analyzed using the CellTiter96® Aqueous One Solution Cell Proliferation Assay (Promega, Materials and Methods). The means at each concentration of one representative experiment are shown as percentages of DMSO (control, 100%). Means ± SDs (n = 3). b Overexpression of hCBS or knock-down of hCBS counteracts the growth inhibition exerted by CH004 in HEK293T cells. Indicated HEK293T stable cell lines were treated with the CH004 or DMSO for 24 h. Then, the cell viability was quantified with the CellTiter 96® Aqueous One Solution Cell Proliferation Assay under the standard protocol (Promega). The means at each concentration are shown as percentages of their respective DMSO controls (100%). Means ± SDs (n = 3). The efficacy for CBS overexpression and knock-down in HEK293T cells was determined by Western blotting using an anti-CBS antibody (3E1, 1:2000; Abnova). c CH004 induces cell death in HEK293T and HepG2 cells. […] The means of percentages of dead cells (DMSO, 100%) from three independent samples are shown in d. Means ± SDs (n = 3). e, f Pharmacological inhibition or genetic knock-down of hCBS in HEK293T cells arrests the cell cycle at S phase. HEK293T cells were incubated with indicated compounds for 12 h, and the DNA content was quantified with propidium iodide to analyze the cell cycle distribution by flow cytometry (e). The cell cycle distributions for HEK293T-shNT and HEK293T-shCBS cells were accordingly analyzed and are shown in f. One representative diagram is shown for each condition. The mean percentages of various cell phases from three independent samples are shown in the respective right panels. Means ± SDs (n = 3). […]
Figure S15. […] Indicated HEK293T stable cell lines were treated with CH004 at a concentration of 10 µM for 24 h, and the cell viability was then measured using the CellTiter96® Aqueous One Solution Cell Proliferation Assay (Promega). […]

With `Cn1nc(Cc2ccccc2)nc2c(=O)n(C)c(=O)nc1-2` [CH004, 3-benzyl-1,6-dimethylpyrimido[5,4-e][1,2,4]triazine-5,7(1H,6H)-dione] the IC50 was about 11 µM and the IC50 (Homo sapiens, HepG2, 24 h) was 11.3 ± 1.3 µM.
